According to US11291719B2, “Methods and compositions for modulating Akt3” (Augusta University Research Institute, Inc., priority 2016, dated 2022):

Assays:
Akt3 pS472 = molecular target: T1, Akt3 pS472 (Homo sapiens, UniProt Q9Y243); experiment: Akt3 phosphorylation in A2780 cells; format: cell-based; conditions: human ovarian carcinoma cells (A2780)
T1 construct: expression of Akt1 pS473, Akt2 pS474, Akt3 pS472, and Akt pan 5473,474,472 in A2780 cells; endogenous in cells; host or cells: A2780 human ovarian carcinoma cells
T1 sequence (Q9Y243 whole entry): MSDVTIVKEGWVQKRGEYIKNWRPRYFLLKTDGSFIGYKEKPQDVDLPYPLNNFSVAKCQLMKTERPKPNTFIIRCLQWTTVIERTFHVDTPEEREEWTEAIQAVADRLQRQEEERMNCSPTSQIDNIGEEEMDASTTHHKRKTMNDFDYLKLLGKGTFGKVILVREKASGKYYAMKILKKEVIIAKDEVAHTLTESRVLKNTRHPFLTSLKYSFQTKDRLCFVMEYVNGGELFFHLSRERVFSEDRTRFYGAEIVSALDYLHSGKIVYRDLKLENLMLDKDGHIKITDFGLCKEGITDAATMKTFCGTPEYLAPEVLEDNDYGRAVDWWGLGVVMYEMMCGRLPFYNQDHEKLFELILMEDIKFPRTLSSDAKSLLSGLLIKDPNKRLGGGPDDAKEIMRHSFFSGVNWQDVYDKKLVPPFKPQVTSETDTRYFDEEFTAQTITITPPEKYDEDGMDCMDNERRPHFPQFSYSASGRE
Description: FIG. 10 is a bar graph showing the effect of mJJ64A on the expression of Akt1 pS473, Akt2 pS474, Akt3 pS472, and Akt pan 5473,474,472 in A2780 cells compared to control. The Y axis represents integrated density value.

human iTregs = experiment: Induction and viability of human iTregs; format: cell-based
Description: FIG. 11A is a bar graph showing the percent of live human iTregs in cells treated with various concentrations of mJJ64A. The X-axis represents treatment group and the Y-axis represents percent of live cells. FIG. 11B is a bar graph showing the percent of FoxP3^+CD4^+ cells in human iTregs treated with various concentrations of mJJ64A. The X-axis represents treatment group and the Y-axis represents percent of FoxP3^+CD4^+ cells. FIG. 11C is a bar graph showing the percent of TGFβ^+ expressing cells in human iTregs treated with various concentrations of mJJ64A. The X-axis represents treatment group and the Y-axis represents percent of TGFβ^+ expressing cells.

iTregs = experiment: Proliferation of activated iTregs; format: cell-based; conditions: TGF-β induced
Description: FIGS. 13A-13H show histograms representing proliferation of activated iTregs induced with TGF-β and treated with various concentrations of mJJ64A. FIG. 13I is a bar graph showing percent proliferation of iTregs treated with various concentrations of mJJ64A. The X-axis represents concentration of mJJ64A. The Y-axis represents percent proliferation. FIG. 13J is a bar graph showing the percent of live cells in iTregs treated with various concentrations of mJJ64A. The X axis represents treatment and the Y axis represents percentage of live cells.

[1] = tested on: non-Treg CD4 and CD8 T cells; experiment: Proliferation of non-Treg CD4 and CD8 T cells; format: cell-based; conditions: data not shown
mouse nTregs cells = experiment: Suppressive function of mouse nTregs in vitro; format: cell-based; conditions: nTreg to Tconv ratios 0:1 to 3:1
Description: FIGS. 16A-16L is a set of histograms showing the suppressive function of untreated and mJJ64A treated nTregs. The ratio of nTreg to Tconv cells is 0:1, 0.5:1, 1:1, 2:1, and 3:1.

[2] = tested on: Tregs, CD8+ and FoxP3NEG CD4 T cells; experiment: T cell populations in tumors and spleens of TC-1 mice; format: in vivo, mouse
Description: FIG. 19A is a bar graph representing the number of CD8^+ cells per 10^6 live cells in tumors from untreated and mJJ64A treated mice. FIG. 19B is a bar graph representing the number of CD4^+ cells per 10^6 live cells in tumors from untreated and mJJ64A treated mice. FIG. 19C is a bar graph representing the number of FoxP3^+ cells per 10^6 CD4^+ cells in tumors from untreated and mJJ64A treated mice. FIG. 19D is a bar graph representing the number of CD8^+, FoxP3^NEG CD4^+, and Treg cells per 10^6 live cells in the spleen of untreated or mJJ64A treated tumor-bearing mice. FIG. 19E is a bar graph representing the number of CD8^+, FoxP3^NEG CD4^+, and Treg cells per 10^6 live cells in the spleen of untreated or mJJ64A treated tumor-free mice.

[3] = tested on: experimental autoimmune encephalomyelitis (EAE); experiment: Experimental autoimmune encephalomyelitis (EAE) model; format: in vivo, mouse
Description: FIG. 24A is a schematic illustration of induction of experimental autoimmune encephalomyelitis (EAE) model. FIG. 24B is a chart showing the grading criterion for scoring severity of EAE. FIG. 24C is a line graph showing EAE score over time (days post EAE induction) for control (●), iTreg (blue circle), and mJJ64A-10 (▾) treated mice. The X-axis represents time (days) and the Y-axis represents EAE score. FIG. 24D is a line graph showing percent survival over time (days) for untreated (•), iTreg treated (●), and mJJ64A-10 treated (▾) mice. The X-axis represents time (days) and the Y-axis represents percent survival. FIG. 24E is a line graph representing EAE score over time (days post EAE induction) for control (●), iTreg (♦), mJJ64A-3 (blue circle), mJJ64A-6 (▾), and mJJ64A-10 (▴) treated EAE mice. The X-axis represents time (days post EAE induction) and the Y-axis represents EAE score. FIG. 24F is a line graph representing percent survival over time (days) for untreated (•), iTreg (blue circle), mJJ64A-3 (▾), mJJ64A-6 (▴), and mJJ64A-10 (♦) treated EAE mice. The X-axis represents time (days) and the Y-axis represents percent survival.

Tregs = experiment: Percent of Tregs in EAE mice; format: in vivo, mouse; conditions: compared to untreated
Description: FIGS. 25A-251 are bar graphs showing the percent of FoxP3^+ cells per CD4^+ T cells, FoxP3^− cells per CD4^+ T cells, and ROR^+ cells per CD4^+ T cells in the spleen (FIG. 25A-25C), blood (FIG. 25D-25F), and brain (FIG. 25G-251) of UT, iTreg, mJJ64A-3, mJJ64A-6 and mJJ64A-10 treated EAE mice. The X-axis represents treatment group and the Y-axis represents number of FoxP3^+ cells, FoxP3^−, or ROR^+ cells per CD4^+ cells.

## N#Cc1ccc2nccc(Nc3ccc(C(=O)Nc4ccc(Nc5ccncc5)cc4)cc3)c2c1 [Compound 2]
Akt3 pS472
  phosphorylation of Akt3: significantly increases
Human iTregs; percent FoxP3+CD4+ and TGFβ+ cells
  induction of human iTregs: induced
Human iTregs; percent of live cells
  cell viability of human iTregs: did not affect
iTregs
  proliferation of iTregs: increased
[1]
  proliferation of non-Treg CD4 and CD8 T cells: not
Mouse nTregs cells
  suppressive function of mouse nTregs cells in vitro: increased
[2]; compared to untreated controls
  number of Tregs in the tumors and spleens: increased
[2]; mouse, in vivo
  tumor-infiltration of CD8+ and FoxP3NEG CD4 T cells: not affected
[3]; EAE score
  disease progression in EAE model: reduced
[3]; mouse, in vivo
  survival rate in EAE model: increased
Tregs
  percent of Tregs in the spleen, blood, and brain: increased
